Experimental data as given in patent publication US10633419B2, “Immunomodulators” (BRISTOL-MYERS SQUIBB COMPANY, priority 2014, dated 2020).
Starred links: 1 amine or outer side, 2 acyl side, 3 side chain; linkers in the order of their positions; H or OH if unused. Positions of bridges follow the written chain, without caps; N, C: chain ends. Non-standard residues stand in square brackets, D forms with d. Residues, ends and D or L forms follow the SMILES beside them. Groups on a side chain read outwards from the residue. *: point of attachment. δOrn(Nα-Octadecanedioyl) = O=C(O)CCCCCCCCCCCCCCCCC(=O)N[C@@H](CCCN*)C(=O)O; Trp(1-CH2COOH) = N[C@@H](Cc1cn(CC(=O)O)c2ccccc12)C(=O)O; X9 = O=C(O)CCCCCCCCCCCCCCCCC(=O)N[C@@H](CCN*)C(=O)O; C18 diacid = O=C(O)CCCCCCCCCCCCCCCCC(=O)*; Phe(4-F) = N[C@@H](Cc1ccc(F)cc1)C(=O)O; γGlu = O=C(O)[C@H](CCC(=O)[*:2])N[*:1]; Hyp = O=C(O)[C@@H]1C[C@@H](O)CN1; NMeNle = CCCC[C@H](NC)C(=O)O; Pip = O=C(O)[C@@H]1CCCCN1; Dab = NCC[C@H](N)C(=O)O; Dap = NC[C@H](N)C(=O)O

target: T1, PD-L1 (Homo sapiens, UniProt Q9NZQ7); assay: PD-1/PD-L1 Homogenous Time-Resolved Fluorescence (HTRF) binding assay (PD-1-Ig/PD-L1-His); conditions: inhibition of PD-1-Ig binding to PD-L1-TVMV-His; value given as number; read-out: HTRF IC50
T1 construct: hPDL1(19-239)-TVMV-His; made in house; host or cells: HEK293T
In short: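 HTRF competition in dPBS with 0.1% BSA and 0.05% Tween-20: 20 nM PD-1-Ig added after 15 min compound pre-incubation with 10 nM PD-L1-His, then another 15 min. Signal (665/620 nm) after 30 min with APC anti-His (20 nM) and Eu anti-Ig (1 nM).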

T1 sequence (Q9NZQ7 with tags, fused parts or gaps): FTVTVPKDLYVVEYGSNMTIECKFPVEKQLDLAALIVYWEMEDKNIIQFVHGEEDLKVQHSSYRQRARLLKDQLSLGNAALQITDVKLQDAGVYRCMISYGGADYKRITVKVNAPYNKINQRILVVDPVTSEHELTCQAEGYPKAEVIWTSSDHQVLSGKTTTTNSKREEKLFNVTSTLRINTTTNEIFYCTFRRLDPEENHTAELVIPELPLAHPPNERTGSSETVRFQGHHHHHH

Row | IC50 [nM] | Structure (SMILES)
1 | 3.3 | CCCC[C@H]1C(=O)N(C)[C@@H](CCCC)C(=O)N[C@@H](CC(C)C)C(=O)N[C@H](C(=O)NCC(=O)N[C@@H](Cc2cn(CC[C@H](NC(=O)CCCCCCCCCCCCCCCCC(=O)O)C(=O)O)nn2)C(=O)O)CSCC(=O)N[C@@H](Cc2ccc(O)cc2)C(=O)N2CCCC[C@H]2C(=O)N[C@@H](CC(N)=O)C(=O)N2CCC[C@H]2C(=O)N[C@@H](CN)C(=O)N[C@@H](CC(C)C)C(=O)N2C[C@H](O)C[C@H]2C(=O)N[C@@H](Cc2c[nH]c3ccccc23)C(=O)N[C@@H](CCN)C(=O)N[C@@H](Cc2cn(CC(=O)O)c3ccccc23)C(=O)N1C [Example 13132]
2 | 20.9 | CCCC[C@H]1C(=O)N(C)[C@@H](CCCC)C(=O)N[C@@H](CC(C)C)C(=O)N[C@H](C(=O)NCC(=O)N[C@@H](CCNC(=O)CC[C@H](NC(=O)CCCCCCCCCCCCCCCCC(=O)O)C(=O)O)C(=O)O)CSCC(=O)N[C@@H](Cc2ccc(F)cc2)C(=O)N2CCCC[C@H]2C(=O)N[C@@H](CC(=O)O)C(=O)N2CCC[C@H]2C(=O)N[C@@H](CN)C(=O)N[C@@H](CC(C)C)C(=O)N2C[C@H](O)C[C@H]2C(=O)N[C@@H](Cc2c[nH]c3ccccc23)C(=O)N[C@@H](CCN)C(=O)N[C@@H](Cc2cn(CC(=O)O)c3ccccc23)C(=O)N1C [Example 13150] ({CH2CO}-[Phe(4-F)][Pip]DP[Dap]L[Hyp]W[Dab][Trp(1-CH2COOH)][NMeNle][NMeNle]LCG[Dab]([γGlu-C18 diacid])-OH; thioether N-14)

same assay, conditions: inhibition of PD-1-Ig binding to PD-L1-TVMV-His; value given as range class; read-out: HTRF IC50

Row | Structure (SMILES) | IC50 [nM]
3 | CCCC[C@H]1C(=O)N(C)[C@@H](CCCC)C(=O)N[C@@H](CC(C)C)C(=O)N[C@H](C(=O)NCC(=O)N[C@@H](CC(=O)NCCC[C@H](NC(=O)CCCCCCCCCCCCCCCCC(=O)O)C(=O)O)C(=O)O)CSCC(=O)N[C@@H](Cc2ccc(O)cc2)C(=O)N2CCCC[C@H]2C(=O)N[C@@H](CC(N)=O)C(=O)N2CCC[C@H]2C(=O)N[C@@H](CN)C(=O)N[C@@H](CC(C)C)C(=O)N2C[C@H](O)C[C@H]2C(=O)N[C@@H](Cc2c[nH]c3ccccc23)C(=O)N[C@@H](CCN)C(=O)N[C@@H](Cc2cn(CC(=O)O)c3ccccc23)C(=O)N1C [Example 13141] ({CH2CO}-Y[Pip]NP[Dap]L[Hyp]W[Dab][Trp(1-CH2COOH)][NMeNle][NMeNle]LCGD(δOrn(Nα-Octadecanedioyl))-OH; thioether N-14) | 100 to 1600
4 | CCCC[C@H]1C(=O)N(C)[C@@H](CCCC)C(=O)N[C@@H](CC(C)C)C(=O)N[C@H](C(=O)NCC(=O)N[C@@H](CCC(=O)NCC[C@H](NC(=O)CCCCCCCCCCCCCCCCC(=O)O)C(=O)O)C(=O)O)CSCC(=O)N[C@@H](Cc2ccc(O)cc2)C(=O)N2CCCC[C@H]2C(=O)N[C@@H](CC(N)=O)C(=O)N2CCC[C@H]2C(=O)N[C@@H](CN)C(=O)N[C@@H](CC(C)C)C(=O)N2C[C@H](O)C[C@H]2C(=O)N[C@@H](Cc2c[nH]c3ccccc23)C(=O)N[C@@H](CCN)C(=O)N[C@@H](Cc2cn(CC(=O)O)c3ccccc23)C(=O)N1C [Example 13143] ({CH2CO}-Y[Pip]NP[Dap]L[Hyp]W[Dab][Trp(1-CH2COOH)][NMeNle][NMeNle]LCGE(X9)-OH; thioether N-14) | 100 to 1600
5 | CCCC[C@H]1C(=O)N(C)[C@@H](CCCC)C(=O)N[C@@H](CC(C)C)C(=O)N[C@H](C(=O)NCC(=O)N[C@@H](CC(=O)NCCC[C@H](NC(=O)CCCCCCCCCCCCCCCCC(=O)O)C(=O)O)C(=O)O)CSCC(=O)N[C@@H](Cc2ccc(F)cc2)C(=O)N2CCCC[C@H]2C(=O)N[C@@H](CC(=O)O)C(=O)N2CCC[C@H]2C(=O)N[C@@H](CN)C(=O)N[C@@H](CC(C)C)C(=O)N2C[C@H](O)C[C@H]2C(=O)N[C@@H](Cc2c[nH]c3ccccc23)C(=O)N[C@@H](CCN)C(=O)N[C@@H](Cc2cn(CC(=O)O)c3ccccc23)C(=O)N1C [Example 13145] ({CH2CO}-[Phe(4-F)][Pip]DP[Dap]L[Hyp]W[Dab][Trp(1-CH2COOH)][NMeNle][NMeNle]LCGD(δOrn(Nα-Octadecanedioyl))-OH; thioether N-14) | 10 to 99
6 | CCCC[C@H]1C(=O)N(C)[C@@H](CCCC)C(=O)N[C@@H](CC(C)C)C(=O)N[C@H](C(=O)NCC(=O)N[C@@H](CCC(=O)NCCC[C@H](NC(=O)CCCCCCCCCCCCCCCCC(=O)O)C(=O)O)C(=O)O)CSCC(=O)N[C@@H](Cc2ccc(F)cc2)C(=O)N2CCCC[C@H]2C(=O)N[C@@H](CC(=O)O)C(=O)N2CCC[C@H]2C(=O)N[C@@H](CN)C(=O)N[C@@H](CC(C)C)C(=O)N2C[C@H](O)C[C@H]2C(=O)N[C@@H](Cc2c[nH]c3ccccc23)C(=O)N[C@@H](CCN)C(=O)N[C@@H](Cc2cn(CC(=O)O)c3ccccc23)C(=O)N1C [Example 13146] ({CH2CO}-[Phe(4-F)][Pip]DP[Dap]L[Hyp]W[Dab][Trp(1-CH2COOH)][NMeNle][NMeNle]LCGE(δOrn(Nα-Octadecanedioyl))-OH; thioether N-14) | 10 to 99
7 | CCCC[C@H]1C(=O)N(C)[C@@H](CCCC)C(=O)N[C@@H](CC(C)C)C(=O)N[C@H](C(=O)NCC(=O)N[C@@H](CCC(=O)NCC[C@H](NC(=O)CCCCCCCCCCCCCCCCC(=O)O)C(=O)O)C(=O)O)CSCC(=O)N[C@@H](Cc2ccc(F)cc2)C(=O)N2CCCC[C@H]2C(=O)N[C@@H](CC(=O)O)C(=O)N2CCC[C@H]2C(=O)N[C@@H](CN)C(=O)N[C@@H](CC(C)C)C(=O)N2C[C@H](O)C[C@H]2C(=O)N[C@@H](Cc2c[nH]c3ccccc23)C(=O)N[C@@H](CCN)C(=O)N[C@@H](Cc2cn(CC(=O)O)c3ccccc23)C(=O)N1C [Example 13148] ({CH2CO}-[Phe(4-F)][Pip]DP[Dap]L[Hyp]W[Dab][Trp(1-CH2COOH)][NMeNle][NMeNle]LCGE(X9)-OH; thioether N-14) | 10 to 99
8 | CCCC[C@H]1C(=O)N(C)[C@@H](CCCC)C(=O)N[C@@H](CC(C)C)C(=O)N[C@H](C(=O)NCC(=O)N[C@@H](CCNC(=O)CC[C@H](NC(=O)CCCCCCCCCCCCCCCCC(=O)O)C(=O)O)C(=O)O)CSCC(=O)N[C@@H](Cc2ccc(O)cc2)C(=O)N2CCCC[C@H]2C(=O)N[C@@H](CC(N)=O)C(=O)N2CCC[C@H]2C(=O)N[C@@H](CN)C(=O)N[C@@H](CC(C)C)C(=O)N2C[C@H](O)C[C@H]2C(=O)N[C@@H](Cc2c[nH]c3ccccc23)C(=O)N[C@@H](CCN)C(=O)N[C@@H](Cc2cn(CC(=O)O)c3ccccc23)C(=O)N1C [Example 13149] ({CH2CO}-Y[Pip]NP[Dap]L[Hyp]W[Dab][Trp(1-CH2COOH)][NMeNle][NMeNle]LCG[Dab]([γGlu-C18 diacid])-OH; thioether N-14) | 10 to 99

Continued, values first:

Row | IC50 [nM] | Structure (SMILES)
9 | 0.3 to 9.9 | CCCC[C@H]1C(=O)N(C)[C@@H](CCCC)C(=O)N[C@@H](CC(C)C)C(=O)N[C@H](C(=O)NCC(=O)N[C@@H](Cc2cn(CC[C@H](NC(=O)CCCCCCCCCCCCCCCCC(=O)O)C(=O)O)nn2)C(=O)O)CSCC(=O)N[C@@H](Cc2ccc(O)cc2)C(=O)N2CCCC[C@H]2C(=O)N[C@@H](CC(N)=O)C(=O)N2CCC[C@H]2C(=O)N[C@@H](CNC)C(=O)N[C@@H](CC(C)C)C(=O)N2C[C@H](O)C[C@H]2C(=O)N[C@@H](Cc2c[nH]c3ccccc23)C(=O)N[C@@H](CCN)C(=O)N[C@@H](Cc2cn(CC(=O)O)c3ccccc23)C(=O)N1C [Example 13133]
10 | 100 to 1600 | CCCC[C@H]1C(=O)N(C)[C@@H](CCCC)C(=O)N[C@@H](CC(C)C)C(=O)N[C@H](C(=O)NCC(=O)N[C@@H](CCC(=O)NCCC[C@H](NC(=O)CCCCCCCCCCCCCCCCC(=O)O)C(=O)O)C(=O)O)CSCC(=O)N[C@@H](Cc2ccc(O)cc2)C(=O)N2CCCC[C@H]2C(=O)N[C@@H](CC(N)=O)C(=O)N2CCC[C@H]2C(=O)N[C@@H](CN)C(=O)N[C@@H](CC(C)C)C(=O)N2C[C@H](O)C[C@H]2C(=O)N[C@@H](Cc2c[nH]c3ccccc23)C(=O)N[C@@H](CCN)C(=O)N[C@@H](Cc2cn(CC(=O)O)c3ccccc23)C(=O)N1C [Example 13142] ({CH2CO}-Y[Pip]NP[Dap]L[Hyp]W[Dab][Trp(1-CH2COOH)][NMeNle][NMeNle]LCGE(δOrn(Nα-Octadecanedioyl))-OH; thioether N-14)
11 | 10 to 99 | CCCC[C@H]1C(=O)N(C)[C@@H](CCCC)C(=O)N[C@@H](CC(C)C)C(=O)N[C@H](C(=O)NCC(=O)N[C@@H](CC(=O)NCC[C@H](NC(=O)CCCCCCCCCCCCCCCCC(=O)O)C(=O)O)C(=O)O)CSCC(=O)N[C@@H](Cc2ccc(O)cc2)C(=O)N2CCCC[C@H]2C(=O)N[C@@H](CC(N)=O)C(=O)N2CCC[C@H]2C(=O)N[C@@H](CN)C(=O)N[C@@H](CC(C)C)C(=O)N2C[C@H](O)C[C@H]2C(=O)N[C@@H](Cc2c[nH]c3ccccc23)C(=O)N[C@@H](CCN)C(=O)N[C@@H](Cc2cn(CC(=O)O)c3ccccc23)C(=O)N1C [Example 13144] ({CH2CO}-Y[Pip]NP[Dap]L[Hyp]W[Dab][Trp(1-CH2COOH)][NMeNle][NMeNle]LCGD(X9)-OH; thioether N-14)
12 | 100 to 1600 | CCCC[C@H]1C(=O)N(C)[C@@H](CCCC)C(=O)N[C@@H](CC(C)C)C(=O)N[C@H](C(=O)NCC(=O)N[C@@H](CC(=O)NCC[C@H](NC(=O)CCCCCCCCCCCCCCCCC(=O)O)C(=O)O)C(=O)O)CSCC(=O)N[C@@H](Cc2ccc(F)cc2)C(=O)N2CCCC[C@H]2C(=O)N[C@@H](CC(=O)O)C(=O)N2CCC[C@H]2C(=O)N[C@@H](CN)C(=O)N[C@@H](CC(C)C)C(=O)N2C[C@H](O)C[C@H]2C(=O)N[C@@H](Cc2c[nH]c3ccccc23)C(=O)N[C@@H](CCN)C(=O)N[C@@H](Cc2cn(CC(=O)O)c3ccccc23)C(=O)N1C [Example 13147] ({CH2CO}-[Phe(4-F)][Pip]DP[Dap]L[Hyp]W[Dab][Trp(1-CH2COOH)][NMeNle][NMeNle]LCGD(X9)-OH; thioether N-14)
